# Data taken from ChEMBL document CHEMBL5465560, “Selectivity Literature for EUbOPEN Chemogenomic Library” (2024).
# Columns and labels:
# [1] = molecular target: Serine/threonine-protein kinase 38-like (Homo sapiens) (UniProt Q9Y2H1); assay: Selectivity interaction (Kinase panel (DSF assay)) EUB0001558a STK38L
# [2] = molecular target: T1, Histone-lysine N-methyltransferase SMYD3 (Homo sapiens) (UniProt Q9H7B4); assay: Selectivity interaction (Methyltransferase screen (radiometric assays, panel of 8 PRMTs, 21 protein lysine methyltransferases, 3 DNA methyltransferases, and one RNA methyltransferase)) EUB0000272b SMYD3
# T1 sequence (whole entry): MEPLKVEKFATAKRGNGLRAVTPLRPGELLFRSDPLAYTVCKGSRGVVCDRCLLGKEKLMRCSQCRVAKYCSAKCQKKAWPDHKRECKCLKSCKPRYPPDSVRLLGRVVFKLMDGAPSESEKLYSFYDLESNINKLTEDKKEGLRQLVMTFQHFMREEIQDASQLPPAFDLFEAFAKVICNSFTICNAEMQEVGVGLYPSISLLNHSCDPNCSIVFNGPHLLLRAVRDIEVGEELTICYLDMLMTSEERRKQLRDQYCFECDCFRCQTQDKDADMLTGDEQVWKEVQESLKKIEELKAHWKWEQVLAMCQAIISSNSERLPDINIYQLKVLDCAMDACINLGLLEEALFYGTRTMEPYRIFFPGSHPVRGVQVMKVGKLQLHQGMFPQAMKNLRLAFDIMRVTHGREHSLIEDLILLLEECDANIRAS
# [3] = molecular target: Serine/threonine-protein kinase NLK (Homo sapiens, UniProt Q9UBE8); assay: Selectivity interaction (Competition-binding assay (DiscoverX)) EUB0000229b NLK
# [4] = molecular target: T2, 3-phosphoinositide-dependent protein kinase 1 (Homo sapiens) (UniProt O15530); assay: Selectivity interaction (KinomeScan (DiscoverX)) EUB0000229b PDPK1; details: at 10 µM
# T2 sequence (whole entry): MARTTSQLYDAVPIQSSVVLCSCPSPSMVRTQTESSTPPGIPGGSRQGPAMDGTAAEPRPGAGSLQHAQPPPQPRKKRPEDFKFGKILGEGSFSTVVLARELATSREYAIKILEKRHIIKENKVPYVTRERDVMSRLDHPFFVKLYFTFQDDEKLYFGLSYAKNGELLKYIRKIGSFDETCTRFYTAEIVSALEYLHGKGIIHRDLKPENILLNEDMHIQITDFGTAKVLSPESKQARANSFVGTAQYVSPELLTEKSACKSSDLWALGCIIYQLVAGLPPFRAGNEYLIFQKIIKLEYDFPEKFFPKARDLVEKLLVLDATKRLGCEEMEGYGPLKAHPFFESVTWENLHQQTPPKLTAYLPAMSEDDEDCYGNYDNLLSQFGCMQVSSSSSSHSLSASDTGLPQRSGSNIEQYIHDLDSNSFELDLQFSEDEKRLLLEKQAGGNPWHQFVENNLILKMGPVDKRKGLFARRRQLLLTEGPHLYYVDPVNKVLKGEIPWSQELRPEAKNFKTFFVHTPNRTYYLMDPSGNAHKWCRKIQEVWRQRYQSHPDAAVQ
# Misshapen-like kinase 1 = Misshapen-like kinase 1 (Homo sapiens, UniProt Q8N4C8); assay: Selectivity interaction (KinomeScan (DiscoverX)) EUB0000092b MINK1; details: at 10 µM
# [5] = molecular target: Casein kinase II subunit alpha (Homo sapiens, UniProt P68400); assay: Selectivity interaction (KinomeScan (DiscoverX)) EUB0000655a CSNK2A1; details: at 10 µM
# [6] = molecular target: Rho-associated protein kinase 2 (Homo sapiens, UniProt O75116); assay: Selectivity interaction (ProQinase) EUB0000171b ROCK2
# [7] = tested on: Epidermal growth factor receptor (Homo sapiens), P00533 [UNDEFINED MUTATION]; assay: Selectivity interaction (KinomeScan (DiscoverX)) EUB0000666a EGFR; details: at 10 µM
# [8] = molecular target: Mitogen-activated protein kinase 9 (Homo sapiens, UniProt P45984); assay: Selectivity interaction (KinomeScan (DiscoverX)) EUB0000666a MAPK9; details: at 10 µM
# [9] = molecular target: MAP/microtubule affinity-regulating kinase 3 (Homo sapiens) (UniProt P27448); assay: Selectivity interaction (KinomeScan (DiscoverX)) EUB0000666a MARK3; details: at 10 µM
# [10] = molecular target: Dual specificity protein kinase CLK1 (Homo sapiens, UniProt P49759); assay: Selectivity interaction (Kinase panel (Invitrogen)) EUB0000639a CLK1; details: at 200 nM
# [11] = molecular target: Protein kinase C theta type (Homo sapiens, UniProt Q04759); assay: Selectivity interaction (SelectScreen profiling (Invitrogen)) EUB0000607a PRKCQ; details: at 2 µM
# [12] = molecular target: DNA (cytosine-5)-methyltransferase 1 (Homo sapiens) (UniProt P26358); assay: Selectivity interaction (Methyltransferase screen (radiometric assays, panel of 8 PRMTs, 21 protein lysine methyltransferases, 3 DNA methyltransferases, and one RNA methyltransferase)) EUB0000271b DNMT1
# [13] = molecular target: Serine/threonine-protein kinase 32C (Homo sapiens) (UniProt Q86UX6); assay: Selectivity interaction (KinomeScan (DiscoverX)) EUB0000045b STK32C
# [14] = molecular target: Tyrosine-protein kinase CSK (Homo sapiens) (UniProt P41240); assay: Selectivity interaction (Kinase screening (Upstate/Millipore)) EUB0000604a CSK
# Tyrosine-protein kinase CSK (Homo sapiens), sequence (P41240 2-450 limits assumed): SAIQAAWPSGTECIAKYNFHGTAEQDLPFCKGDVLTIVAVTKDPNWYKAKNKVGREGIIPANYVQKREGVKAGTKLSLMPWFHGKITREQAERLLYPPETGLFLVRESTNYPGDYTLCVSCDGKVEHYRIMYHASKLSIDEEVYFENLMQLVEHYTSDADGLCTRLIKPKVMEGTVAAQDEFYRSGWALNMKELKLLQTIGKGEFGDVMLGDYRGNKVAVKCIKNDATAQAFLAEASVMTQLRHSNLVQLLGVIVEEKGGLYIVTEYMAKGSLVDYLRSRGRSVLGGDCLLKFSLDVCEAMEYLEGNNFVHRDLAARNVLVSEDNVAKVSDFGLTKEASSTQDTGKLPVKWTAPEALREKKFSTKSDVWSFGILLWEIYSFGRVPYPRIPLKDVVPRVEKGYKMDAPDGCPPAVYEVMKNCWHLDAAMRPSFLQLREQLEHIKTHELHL
# Rho-associated protein kinase 2, sequence (O75116 whole entry, looked up): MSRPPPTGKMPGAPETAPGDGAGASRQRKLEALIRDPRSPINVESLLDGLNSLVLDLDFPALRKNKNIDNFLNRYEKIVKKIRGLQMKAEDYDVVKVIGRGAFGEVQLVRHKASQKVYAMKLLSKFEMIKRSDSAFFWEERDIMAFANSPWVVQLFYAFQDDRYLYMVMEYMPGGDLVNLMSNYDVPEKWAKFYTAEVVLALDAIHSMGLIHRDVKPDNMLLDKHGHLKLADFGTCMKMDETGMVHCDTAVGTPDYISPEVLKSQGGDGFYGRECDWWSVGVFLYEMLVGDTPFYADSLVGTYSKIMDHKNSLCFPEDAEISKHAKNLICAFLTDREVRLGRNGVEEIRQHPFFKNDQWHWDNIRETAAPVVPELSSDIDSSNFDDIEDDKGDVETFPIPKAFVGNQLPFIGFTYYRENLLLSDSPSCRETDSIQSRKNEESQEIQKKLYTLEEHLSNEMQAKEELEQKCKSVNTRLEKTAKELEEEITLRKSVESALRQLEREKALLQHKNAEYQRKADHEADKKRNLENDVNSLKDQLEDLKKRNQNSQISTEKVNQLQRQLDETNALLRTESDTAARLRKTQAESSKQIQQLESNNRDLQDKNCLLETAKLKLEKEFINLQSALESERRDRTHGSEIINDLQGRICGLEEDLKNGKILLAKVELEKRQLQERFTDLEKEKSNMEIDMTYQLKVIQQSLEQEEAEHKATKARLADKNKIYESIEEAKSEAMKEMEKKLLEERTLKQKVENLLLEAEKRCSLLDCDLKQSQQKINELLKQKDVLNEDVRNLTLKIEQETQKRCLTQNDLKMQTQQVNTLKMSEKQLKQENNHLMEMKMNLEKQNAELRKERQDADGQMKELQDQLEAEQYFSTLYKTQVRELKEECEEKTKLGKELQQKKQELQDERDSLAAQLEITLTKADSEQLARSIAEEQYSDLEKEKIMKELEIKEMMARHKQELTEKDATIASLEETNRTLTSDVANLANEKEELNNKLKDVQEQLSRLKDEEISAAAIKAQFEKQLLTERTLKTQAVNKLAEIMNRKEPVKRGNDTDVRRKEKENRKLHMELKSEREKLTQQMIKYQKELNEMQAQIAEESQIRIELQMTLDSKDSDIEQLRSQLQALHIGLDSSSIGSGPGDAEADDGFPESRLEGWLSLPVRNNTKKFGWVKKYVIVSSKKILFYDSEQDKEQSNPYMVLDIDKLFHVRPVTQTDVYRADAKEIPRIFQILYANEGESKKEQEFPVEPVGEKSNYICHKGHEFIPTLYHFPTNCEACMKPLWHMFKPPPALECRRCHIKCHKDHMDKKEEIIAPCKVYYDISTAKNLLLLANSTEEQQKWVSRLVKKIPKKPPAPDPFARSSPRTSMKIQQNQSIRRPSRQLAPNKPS
# DNA (cytosine-5)-methyltransferase 1 (Homo sapiens), sequence (P26358 whole entry): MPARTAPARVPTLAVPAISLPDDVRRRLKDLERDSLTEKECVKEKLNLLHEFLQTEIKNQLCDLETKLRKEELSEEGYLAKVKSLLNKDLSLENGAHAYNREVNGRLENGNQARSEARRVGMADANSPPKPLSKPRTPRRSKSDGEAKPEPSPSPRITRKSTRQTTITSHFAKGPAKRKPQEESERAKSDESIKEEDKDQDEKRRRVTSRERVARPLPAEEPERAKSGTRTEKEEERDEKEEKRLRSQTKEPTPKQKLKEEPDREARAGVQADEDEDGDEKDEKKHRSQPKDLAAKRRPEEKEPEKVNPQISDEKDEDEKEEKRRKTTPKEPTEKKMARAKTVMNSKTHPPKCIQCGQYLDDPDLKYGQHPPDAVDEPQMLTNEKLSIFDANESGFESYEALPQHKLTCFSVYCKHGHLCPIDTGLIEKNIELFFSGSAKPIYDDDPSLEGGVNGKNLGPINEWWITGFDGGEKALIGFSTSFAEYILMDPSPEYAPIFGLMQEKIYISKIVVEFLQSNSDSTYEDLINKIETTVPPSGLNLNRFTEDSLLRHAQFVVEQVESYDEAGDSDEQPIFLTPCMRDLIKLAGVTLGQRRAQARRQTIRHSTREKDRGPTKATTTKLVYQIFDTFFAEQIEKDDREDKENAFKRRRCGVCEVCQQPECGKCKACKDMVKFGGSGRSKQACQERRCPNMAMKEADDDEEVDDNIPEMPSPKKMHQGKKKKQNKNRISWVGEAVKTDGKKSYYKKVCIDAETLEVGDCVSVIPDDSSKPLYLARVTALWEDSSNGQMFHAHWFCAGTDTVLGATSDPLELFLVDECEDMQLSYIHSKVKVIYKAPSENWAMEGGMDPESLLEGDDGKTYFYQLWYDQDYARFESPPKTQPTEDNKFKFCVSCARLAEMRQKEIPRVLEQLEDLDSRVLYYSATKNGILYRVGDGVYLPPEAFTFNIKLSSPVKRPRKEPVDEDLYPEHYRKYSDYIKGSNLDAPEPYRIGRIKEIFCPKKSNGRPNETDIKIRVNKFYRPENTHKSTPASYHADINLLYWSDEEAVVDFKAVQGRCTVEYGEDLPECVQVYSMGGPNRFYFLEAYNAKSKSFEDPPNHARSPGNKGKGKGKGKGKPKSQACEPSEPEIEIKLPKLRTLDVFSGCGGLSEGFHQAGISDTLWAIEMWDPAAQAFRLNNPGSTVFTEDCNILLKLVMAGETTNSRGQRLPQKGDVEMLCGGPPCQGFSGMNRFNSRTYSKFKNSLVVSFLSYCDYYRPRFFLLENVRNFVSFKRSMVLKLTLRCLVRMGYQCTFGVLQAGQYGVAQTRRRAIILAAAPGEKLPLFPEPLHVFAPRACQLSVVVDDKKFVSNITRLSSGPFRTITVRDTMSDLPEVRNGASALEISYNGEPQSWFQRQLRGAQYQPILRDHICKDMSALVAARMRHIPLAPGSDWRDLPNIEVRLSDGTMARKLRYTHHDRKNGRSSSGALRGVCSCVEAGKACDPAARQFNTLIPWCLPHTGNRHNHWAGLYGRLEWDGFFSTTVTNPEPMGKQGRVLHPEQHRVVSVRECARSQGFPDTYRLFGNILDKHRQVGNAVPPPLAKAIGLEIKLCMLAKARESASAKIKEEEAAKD
# Serine/threonine-protein kinase 32C (Homo sapiens), sequence (Q86UX6 whole entry): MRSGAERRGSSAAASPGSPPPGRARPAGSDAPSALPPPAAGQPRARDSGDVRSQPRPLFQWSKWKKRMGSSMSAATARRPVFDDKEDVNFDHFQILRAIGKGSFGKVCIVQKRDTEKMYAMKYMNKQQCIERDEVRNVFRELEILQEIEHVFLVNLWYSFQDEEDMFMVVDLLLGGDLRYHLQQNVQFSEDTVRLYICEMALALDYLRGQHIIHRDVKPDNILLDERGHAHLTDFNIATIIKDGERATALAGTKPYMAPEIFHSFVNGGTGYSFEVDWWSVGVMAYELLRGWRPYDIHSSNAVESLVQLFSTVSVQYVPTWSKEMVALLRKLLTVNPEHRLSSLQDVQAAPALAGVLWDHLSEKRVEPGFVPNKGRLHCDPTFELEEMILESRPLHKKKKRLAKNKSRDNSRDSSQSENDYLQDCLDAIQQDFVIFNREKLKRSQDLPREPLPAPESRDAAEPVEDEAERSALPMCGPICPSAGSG
# Protein kinase C theta type, sequence (Q04759 whole entry, looked up): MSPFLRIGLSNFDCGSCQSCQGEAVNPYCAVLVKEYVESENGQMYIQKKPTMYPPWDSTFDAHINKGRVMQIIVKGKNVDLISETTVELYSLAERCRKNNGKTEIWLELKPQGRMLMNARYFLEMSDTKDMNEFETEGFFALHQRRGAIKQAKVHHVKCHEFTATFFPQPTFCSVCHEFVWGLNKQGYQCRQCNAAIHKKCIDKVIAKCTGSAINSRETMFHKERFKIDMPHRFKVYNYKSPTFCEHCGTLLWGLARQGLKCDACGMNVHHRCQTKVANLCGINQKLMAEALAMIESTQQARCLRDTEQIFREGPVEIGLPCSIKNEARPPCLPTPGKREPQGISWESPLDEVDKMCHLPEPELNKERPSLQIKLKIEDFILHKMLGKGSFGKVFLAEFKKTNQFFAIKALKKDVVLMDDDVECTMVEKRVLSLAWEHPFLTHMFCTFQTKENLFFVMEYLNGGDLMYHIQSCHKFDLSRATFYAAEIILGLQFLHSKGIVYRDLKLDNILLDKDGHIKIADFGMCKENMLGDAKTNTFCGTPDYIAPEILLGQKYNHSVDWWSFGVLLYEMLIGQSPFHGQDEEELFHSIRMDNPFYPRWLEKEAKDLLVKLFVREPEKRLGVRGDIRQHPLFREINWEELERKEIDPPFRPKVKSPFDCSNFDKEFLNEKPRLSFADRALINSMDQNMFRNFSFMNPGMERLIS
# Casein kinase II subunit alpha, sequence (P68400 whole entry, looked up): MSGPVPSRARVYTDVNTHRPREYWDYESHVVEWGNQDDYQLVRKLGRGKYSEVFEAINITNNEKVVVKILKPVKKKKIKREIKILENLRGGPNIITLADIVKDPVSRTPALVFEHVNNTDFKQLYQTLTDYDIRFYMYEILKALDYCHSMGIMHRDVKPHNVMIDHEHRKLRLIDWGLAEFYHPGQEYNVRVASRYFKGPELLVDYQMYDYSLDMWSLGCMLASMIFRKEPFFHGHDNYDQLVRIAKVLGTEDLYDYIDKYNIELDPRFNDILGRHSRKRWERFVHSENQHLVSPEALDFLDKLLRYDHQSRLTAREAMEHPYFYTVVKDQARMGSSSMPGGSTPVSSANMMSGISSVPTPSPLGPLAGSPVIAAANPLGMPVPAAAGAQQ
structure (smiles),measurement,setting,value
CC(C)(O)[C@H](F)CN1Cc2cc(NC(=O)c3cnn4cccnc34)c(N3CCOCC3)cc2C1=O,dTM,[1],-0.2 K
Cc1cc(C)cc([C@H]2c3cc(C)ccc3NC(=O)CN2C(=O)c2ccc(Br)s2)c1,% of activity,[2]; at 1 µM,97.3%
same,% of activity,[2]; at 10 µM,102%
COc1cc(N(C)c2ccnc3ccc(C(F)(F)F)cc23)cc(OC)c1OC,Kd,[3],6.5 µM
same,% binding,[4],98%
CCC(=O)N1CCN(c2ccc(-n3c(=O)ccc4cnc5ccc(-c6cnc7ccccc7c6)cc5c43)cc2C(F)(F)F)CC1,% of control,Misshapen-like kinase 1,19%
CN(C)CCOc1ccc(-c2nc(-c3ccncc3)c(-c3ccc4c(c3)CC/C4=N\O)[nH]2)cc1,% of control,[5],79%
C=CC(=O)Nc1cccc(C(=O)Nc2ccc(Nc3cc(-c4[nH]c(SC)nc4C)ccn3)cc2)c1,% of control,[6]; at 1 µM,95%
same,% of control,[6]; at 5 µM,75%
O=C(NOC[C@H](O)CO)c1ccc(F)c(F)c1Nc1ccc(I)cc1F,% of control,[7],51%
same,% of control,[8],88%
same,% of control,[9],91%
CC[C@@H]1[C@H](F)C(=O)N[C@@H]1COc1nccc2cc(C(N)=O)c(OC)cc12 [ZIMLOVISERTIB],% of inhibition,[10],34.5%
CNC(=O)Nc1ccc(-c2nc(N3CC4CCC(C3)O4)c3cnn(C4CCC5(CC4)OCCO5)c3n2)cc1,% of inhibition,[11],5%
Cc1cc(C)cc([C@@H]2c3cc(C)ccc3NC(=O)CN2C(=O)c2ccc(Br)s2)c1,% of activity,[12]; at 1 µM,98.3%
same,% of activity,[12]; at 10 µM,97.7%
C=CC(=O)Nc1cc(-n2c(=O)ccc3cnc4ccc(-c5ccc(NS(C)(=O)=O)cc5)cc4c32)ccc1C,% of control,[13]; at 1 µM,100%
same,% of control,[13]; at 10 µM,100%
Cc1cnc(Nc2ccc(F)cc2Cl)nc1-c1c[nH]c(C(=O)N[C@H](CO)c2cccc(Cl)c2)c1,% of inhibition,[14],0%
